Source: patent US8802597B2, “Herbicidal pyrimidines” (E I du Pont de Nemours and Company, priority 2003, dated 2014)

How the values were obtained:
Test in all cases: Test C pre/postemergence
Assay type in all cases: in vivo
[1] = tested on: velvetleaf (Abutilon theophrasti); conditions: Postemergence; for Velvetleaf plant response rating: scale 0 to 100 (0 no effect, 100 complete control); for Plant response rating, Velvetleaf: scale 0 to 100
Method in brief: (§1)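 Greenhouse herbicide screen, visual readout. Compound in solvent/surfactant applied preemergence at planting or postemergence to 1- to 4-leaf plants; assessed at 12–14 days on a 0–100 control scale.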

kochia (Kochia scoparia) = conditions: Postemergence; for Kochia plant response rating: scale 0 to 100 (0 no effect, 100 complete control); for Plant response rating, Kochia: scale 0 to 100
Method in brief: as §1

[2] = tested on: crabgrass (Digitaria sanguinalis); conditions: Postemergence; for Crabgrass plant response rating: scale 0 to 100 (0 no effect, 100 complete control); for Plant response rating, Crabgrass: scale 0 to 100
Method in brief: as §1

[3] = tested on: woolly cupgrass (Eriochloa villosa); conditions: Postemergence; for Cupgrass, Woolly plant response rating: scale 0 to 100 (0 no effect, 100 complete control); for Plant response rating, Cupgrass, Woolly: scale 0 to 100
Method in brief: as §1

[4] = tested on: morningglory (Ipomoea coccinea); conditions: Postemergence; for Morningglory plant response rating: scale 0 to 100 (0 no effect, 100 complete control); for Plant response rating, Morningglory: scale 0 to 100
Method in brief: as §1

[5] = tested on: giant foxtail (Setaria faberii); conditions: Postemergence; for Foxtail, Giant plant response rating: scale 0 to 100 (0 no effect, 100 complete control); for Plant response rating, Foxtail, Giant: scale 0 to 100
Method in brief: as §1

[6] = tested on: yellow nutsedge (Cyperus esculentus); conditions: Postemergence; for Nutsedge, Yellow plant response rating: scale 0 to 100 (0 no effect, 100 complete control); for Plant response rating, Nutsedge, Yellow: scale 0 to 100
Method in brief: as §1

[7] = tested on: common ragweed (Ambrosia elatior); conditions: Postemergence; for Ragweed plant response rating: scale 0 to 100 (0 no effect, 100 complete control); for Plant response rating, Ragweed: scale 0 to 100
Method in brief: as §1

[8] = tested on: cocklebur (Xanthium strumarium); conditions: Postemergence; for Cocklebur plant response rating: scale 0 to 100 (0 no effect, 100 complete control); for Plant response rating, Cocklebur: scale 0 to 100
Method in brief: as §1

[9] = tested on: pigweed (Amaranthus retroflexus); conditions: Postemergence; for Pigweed plant response rating: scale 0 to 100 (0 no effect, 100 complete control); for Plant response rating, Pigweed: scale 0 to 100
Method in brief: as §1

CC(=O)NN=Cc1nc(C2CC2)nc(N)c1Br [Compound 51]
Velvetleaf plant response rating ([1]; 62 g ai/ha): 0
Velvetleaf plant response rating ([1]; 125 g ai/ha): 20
Plant response rating, Velvetleaf ([1]; 250 g ai/ha): 60
Plant response rating, Velvetleaf ([1]; 500 g ai/ha): 65
Kochia plant response rating (kochia (Kochia scoparia); 62 g ai/ha): 15
Kochia plant response rating (kochia (Kochia scoparia); 125 g ai/ha): 60
Plant response rating, Kochia (kochia (Kochia scoparia); 250 g ai/ha): 85
Plant response rating, Kochia (kochia (Kochia scoparia); 500 g ai/ha): 95
Crabgrass plant response rating ([2]; 62 g ai/ha): 0
Crabgrass plant response rating ([2]; 125 g ai/ha): 0
Plant response rating, Crabgrass ([2]; 250 g ai/ha): 0
Plant response rating, Crabgrass ([2]; 500 g ai/ha): 45
Cupgrass, Woolly plant response rating ([3]; 62 g ai/ha): 0
Cupgrass, Woolly plant response rating ([3]; 125 g ai/ha): 0
Plant response rating, Cupgrass, Woolly ([3]; 250 g ai/ha): 0
Plant response rating, Cupgrass, Woolly ([3]; 500 g ai/ha): 0
Morningglory plant response rating ([4]; 62 g ai/ha): 80
Morningglory plant response rating ([4]; 125 g ai/ha): 80
Plant response rating, Morningglory ([4]; 250 g ai/ha): 85
Plant response rating, Morningglory ([4]; 500 g ai/ha): 100
Foxtail, Giant plant response rating ([5]; 62 g ai/ha): 0
Foxtail, Giant plant response rating ([5]; 125 g ai/ha): 0
Plant response rating, Foxtail, Giant ([5]; 250 g ai/ha): 0
Plant response rating, Foxtail, Giant ([5]; 500 g ai/ha): 0
Nutsedge, Yellow plant response rating ([6]; 62 g ai/ha): 0
Nutsedge, Yellow plant response rating ([6]; 125 g ai/ha): 0
Plant response rating, Nutsedge, Yellow ([6]; 250 g ai/ha): 0
Plant response rating, Nutsedge, Yellow ([6]; 500 g ai/ha): 0
Ragweed plant response rating ([7]; 62 g ai/ha): 65
Ragweed plant response rating ([7]; 125 g ai/ha): 80
Plant response rating, Ragweed ([7]; 250 g ai/ha): 80
Plant response rating, Ragweed ([7]; 500 g ai/ha): 85
Cocklebur plant response rating ([8]; 62 g ai/ha): 65
Cocklebur plant response rating ([8]; 125 g ai/ha): 65
Plant response rating, Cocklebur ([8]; 250 g ai/ha): 70
Plant response rating, Cocklebur ([8]; 500 g ai/ha): 85
Pigweed plant response rating ([9]; 62 g ai/ha): 65
Pigweed plant response rating ([9]; 125 g ai/ha): 70
Plant response rating, Pigweed ([9]; 250 g ai/ha): 80
Plant response rating, Pigweed ([9]; 500 g ai/ha): 85

COC(=O)c1nc(-c2ccc(Cl)cc2)nc(N)c1Br [Compound 83]
Plant response rating (scale of 0 to 100), Velvetleaf ([1]; 16 g ai/ha): 70
Plant response rating (scale of 0 to 100), Velvetleaf ([1]; 31 g ai/ha): 85
Plant response rating (scale of 0 to 100), Velvetleaf ([1]; 62 g ai/ha): 85
Velvetleaf plant response rating ([1]; 125 g ai/ha): 100
Plant response rating (scale of 0 to 100), Kochia (kochia (Kochia scoparia); 16 g ai/ha): 65
Plant response rating (scale of 0 to 100), Kochia (kochia (Kochia scoparia); 31 g ai/ha): 75
Plant response rating (scale of 0 to 100), Kochia (kochia (Kochia scoparia); 62 g ai/ha): 75
Kochia plant response rating (kochia (Kochia scoparia); 125 g ai/ha): 90
Plant response rating (scale of 0 to 100), Crabgrass ([2]; 16 g ai/ha): 25
Plant response rating (scale of 0 to 100), Crabgrass ([2]; 31 g ai/ha): 45
Plant response rating (scale of 0 to 100), Crabgrass ([2]; 62 g ai/ha): 65
Crabgrass plant response rating ([2]; 125 g ai/ha): 75
Plant response rating (scale of 0 to 100), Cupgrass, Woolly ([3]; 16 g ai/ha): 15
Plant response rating (scale of 0 to 100), Cupgrass, Woolly ([3]; 31 g ai/ha): 15
Plant response rating (scale of 0 to 100), Cupgrass, Woolly ([3]; 62 g ai/ha): 45
Cupgrass, Woolly plant response rating ([3]; 125 g ai/ha): 60
Plant response rating (scale of 0 to 100), Morningglory ([4]; 16 g ai/ha): 70
Plant response rating (scale of 0 to 100), Morningglory ([4]; 31 g ai/ha): 85
Plant response rating (scale of 0 to 100), Morningglory ([4]; 62 g ai/ha): 90
Morningglory plant response rating ([4]; 125 g ai/ha): 90
Plant response rating (scale of 0 to 100), Foxtail, Giant ([5]; 16 g ai/ha): 0
Plant response rating (scale of 0 to 100), Foxtail, Giant ([5]; 31 g ai/ha): 0
Plant response rating (scale of 0 to 100), Foxtail, Giant ([5]; 62 g ai/ha): 20
Foxtail, Giant plant response rating ([5]; 125 g ai/ha): 40
Plant response rating (scale of 0 to 100), Nutsedge, Yellow ([6]; 16 g ai/ha): 60
Plant response rating (scale of 0 to 100), Nutsedge, Yellow ([6]; 31 g ai/ha): 60
Plant response rating (scale of 0 to 100), Nutsedge, Yellow ([6]; 62 g ai/ha): 60
Nutsedge, Yellow plant response rating ([6]; 125 g ai/ha): 75
Plant response rating (scale of 0 to 100), Ragweed ([7]; 16 g ai/ha): 65
Plant response rating (scale of 0 to 100), Ragweed ([7]; 31 g ai/ha): 70
Plant response rating (scale of 0 to 100), Ragweed ([7]; 62 g ai/ha): 75
Ragweed plant response rating ([7]; 125 g ai/ha): 95
Plant response rating (scale of 0 to 100), Cocklebur ([8]; 16 g ai/ha): 60
Plant response rating (scale of 0 to 100), Cocklebur ([8]; 31 g ai/ha): 70
Plant response rating (scale of 0 to 100), Cocklebur ([8]; 62 g ai/ha): 70
Cocklebur plant response rating ([8]; 125 g ai/ha): 100
Plant response rating (scale of 0 to 100), Pigweed ([9]; 16 g ai/ha): 95
Plant response rating (scale of 0 to 100), Pigweed ([9]; 31 g ai/ha): 95
Plant response rating (scale of 0 to 100), Pigweed ([9]; 62 g ai/ha): 100
Pigweed plant response rating ([9]; 125 g ai/ha): 100
